The target of test [1] is T1, GlnA1 (Rhodopseudomonas palustris, UniProt Q6N5K7).
T1 construct: gene glnA; GSI dodecamer; adenylylated at Tyr398 when made in nitrogen-replete medium
As to the kind of experiment: gamma-glutamylhydroxamate formation, absorbance at […] nm. Particulars: 10 mM ATP, 40 mM MgSO4, 10 mM cysteine, 1 mM EDTA, pH 7.5, 30 °C, deadenylylated enzyme from nitrogen-limited cells. The class given is biochemical.

The target of test [2] is T2, GlnA1 (Rhodopseudomonas palustris, UniProt Q6N5K7, Y398A).
T2 construct: gene glnA; GSI dodecamer; adenylylated at Tyr398 when made in nitrogen-replete medium
The test is described as above. The test is classed as biochemical. Particulars: 10 mM ATP, 40 mM hydroxylamine, 40 mM MgSO4, 10 mM cysteine, 1 mM EDTA, pH 7.5, 30 °C; enzyme from LB-grown cells.

SMILES strings stand for the structures.

T1 sequence (Q6N5K7 entry or part of it): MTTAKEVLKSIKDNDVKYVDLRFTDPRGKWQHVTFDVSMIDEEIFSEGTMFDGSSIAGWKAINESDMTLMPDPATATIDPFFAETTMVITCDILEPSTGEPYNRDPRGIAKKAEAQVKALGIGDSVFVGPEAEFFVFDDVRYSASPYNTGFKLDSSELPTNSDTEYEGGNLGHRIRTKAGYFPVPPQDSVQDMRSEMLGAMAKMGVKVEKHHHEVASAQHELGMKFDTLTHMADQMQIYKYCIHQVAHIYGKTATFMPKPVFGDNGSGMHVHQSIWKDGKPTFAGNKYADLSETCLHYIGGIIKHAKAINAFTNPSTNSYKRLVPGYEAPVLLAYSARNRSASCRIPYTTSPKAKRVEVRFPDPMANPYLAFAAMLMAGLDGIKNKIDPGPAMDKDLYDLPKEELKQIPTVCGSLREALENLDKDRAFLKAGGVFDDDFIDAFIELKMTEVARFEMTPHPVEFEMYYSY
T2 sequence (Q6N5K7 entry or part of it Y398A): as the sequence (Q6N5K7 entry or part of it) above, with Y398A counted along it

Take `NO` [hydroxylamine]: the specific activity entry on GlnA1 [1] (10 mM L-glutamate) is given as “A large proportion of GlnA1 was deadenylated via mass spectrometric analysis”. Turning to `N[C@@H](CCC(=O)O)C(=O)O` [l-glutamate], the specific activity result on GlnA1 [1] (40 mM hydroxylamine) is reported as “A large proportion of GlnA1 was deadenylated via mass spectrometric analysis”; on GlnA1 [2] it was “GlnA1^Y398A purified from E. coli cells that were grown in LB medium showed a significantly”.
